Columns and labels:
HCT-116 cells = tested on: HCT-116 cells; set-up: method as in earlier work; details: MTT, 48 h exposure; cited from earlier work
HepG2 cells [1] = tested on: HepG2 cells; set-up: method as in earlier work; details: MTT, 48 h exposure; read-out: IC50 HepG-2; cited from earlier work
MCF-7 cells = tested on: MCF-7 cells; set-up: method as in earlier work; details: MTT, 48 h exposure; cited from earlier work
human Topo-II = molecular target: T1, human Topo-II (Homo sapiens, UniProt P11388); assay: Topoisomerase II inhibitory assay (supercoiled pHot1 DNA, gel electrophoresis); assay type: biochemical; details: 37 °C 30 min
T1 construct: purchased TopoGEN TG1009
T1 sequence (P11388 whole entry): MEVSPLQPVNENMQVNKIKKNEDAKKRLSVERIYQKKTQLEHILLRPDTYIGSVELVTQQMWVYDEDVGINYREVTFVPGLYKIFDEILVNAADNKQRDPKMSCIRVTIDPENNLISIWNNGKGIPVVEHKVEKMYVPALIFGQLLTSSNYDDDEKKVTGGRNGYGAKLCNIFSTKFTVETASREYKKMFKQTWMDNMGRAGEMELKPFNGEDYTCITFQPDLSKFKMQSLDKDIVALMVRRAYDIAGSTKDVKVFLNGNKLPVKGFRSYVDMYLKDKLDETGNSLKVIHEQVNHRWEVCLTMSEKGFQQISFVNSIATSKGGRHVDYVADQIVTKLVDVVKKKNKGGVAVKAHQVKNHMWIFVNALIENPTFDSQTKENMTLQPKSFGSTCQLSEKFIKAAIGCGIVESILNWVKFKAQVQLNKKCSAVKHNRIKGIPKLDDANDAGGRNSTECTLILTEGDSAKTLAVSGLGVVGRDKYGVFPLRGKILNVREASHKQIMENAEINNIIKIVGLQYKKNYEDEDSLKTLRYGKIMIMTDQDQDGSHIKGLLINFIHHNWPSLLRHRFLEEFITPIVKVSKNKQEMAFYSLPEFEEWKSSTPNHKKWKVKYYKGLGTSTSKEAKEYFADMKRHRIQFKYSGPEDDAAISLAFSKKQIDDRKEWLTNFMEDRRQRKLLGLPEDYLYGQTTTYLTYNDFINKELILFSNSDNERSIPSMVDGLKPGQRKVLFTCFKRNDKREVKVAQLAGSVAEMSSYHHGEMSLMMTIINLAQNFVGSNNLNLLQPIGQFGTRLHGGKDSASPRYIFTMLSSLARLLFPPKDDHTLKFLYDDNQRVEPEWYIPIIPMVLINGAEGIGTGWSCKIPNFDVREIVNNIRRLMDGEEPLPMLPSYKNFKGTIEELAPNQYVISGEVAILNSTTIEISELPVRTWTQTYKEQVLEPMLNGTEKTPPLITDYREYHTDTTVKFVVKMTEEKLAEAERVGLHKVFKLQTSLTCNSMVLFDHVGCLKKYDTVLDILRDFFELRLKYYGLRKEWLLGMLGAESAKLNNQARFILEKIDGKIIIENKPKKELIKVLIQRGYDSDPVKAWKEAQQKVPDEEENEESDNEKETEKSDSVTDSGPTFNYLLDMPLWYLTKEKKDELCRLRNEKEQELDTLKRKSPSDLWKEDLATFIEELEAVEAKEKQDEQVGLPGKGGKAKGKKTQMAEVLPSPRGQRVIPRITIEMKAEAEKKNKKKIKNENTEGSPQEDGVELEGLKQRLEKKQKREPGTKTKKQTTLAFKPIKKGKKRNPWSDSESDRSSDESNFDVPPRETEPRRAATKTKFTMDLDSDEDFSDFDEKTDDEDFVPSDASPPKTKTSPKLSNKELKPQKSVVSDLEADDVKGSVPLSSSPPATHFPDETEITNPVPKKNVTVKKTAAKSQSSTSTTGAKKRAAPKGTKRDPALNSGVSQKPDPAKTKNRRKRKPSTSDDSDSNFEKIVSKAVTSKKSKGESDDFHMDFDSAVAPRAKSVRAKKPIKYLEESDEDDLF
Source text: (§1) Subsequently, these compounds were employed to evaluate their capacity to inhibit topoisomerase activity at the established IC50, using supercoiled DNA as a substrate. The resulting DNA products were separated via 1% gel electrophoresis and stained with ethidium bromide. […] To evaluate the catalytic activity of Topo-I, supercoiled DNA served as the substrate. Commercial samples of Topo I and supercoiled DNA were provided by […], TopoGEN, Inc. (Columbus, OH, USA).
To assess the Topo-II activity, a typical enzyme reaction was set up using human Topo-II, supercoiled pHot1 DNA as the substrate, the test drug, and the assay buffer. […] Following that, the DNA was stained and ran on a 1% agarose gel for one to two hours using a Bio-Rad gel electrophoresis apparatus. Both supercoiled and linear DNA strands were included in the gel to serve as indicators for DNA-Topo-II intercalation.

Topo-I = molecular target: T2, Topo-I (Homo sapiens, UniProt P11387); assay: Topoisomerase I inhibitory assay (supercoiled DNA, gel electrophoresis); assay type: biochemical; details: supercoiled DNA substrate, 37 °C 30 min
T2 construct: purchased TopoGEN, Inc. (Columbus, OH, USA) TG1018-1A
T2 sequence (P11387 1-765): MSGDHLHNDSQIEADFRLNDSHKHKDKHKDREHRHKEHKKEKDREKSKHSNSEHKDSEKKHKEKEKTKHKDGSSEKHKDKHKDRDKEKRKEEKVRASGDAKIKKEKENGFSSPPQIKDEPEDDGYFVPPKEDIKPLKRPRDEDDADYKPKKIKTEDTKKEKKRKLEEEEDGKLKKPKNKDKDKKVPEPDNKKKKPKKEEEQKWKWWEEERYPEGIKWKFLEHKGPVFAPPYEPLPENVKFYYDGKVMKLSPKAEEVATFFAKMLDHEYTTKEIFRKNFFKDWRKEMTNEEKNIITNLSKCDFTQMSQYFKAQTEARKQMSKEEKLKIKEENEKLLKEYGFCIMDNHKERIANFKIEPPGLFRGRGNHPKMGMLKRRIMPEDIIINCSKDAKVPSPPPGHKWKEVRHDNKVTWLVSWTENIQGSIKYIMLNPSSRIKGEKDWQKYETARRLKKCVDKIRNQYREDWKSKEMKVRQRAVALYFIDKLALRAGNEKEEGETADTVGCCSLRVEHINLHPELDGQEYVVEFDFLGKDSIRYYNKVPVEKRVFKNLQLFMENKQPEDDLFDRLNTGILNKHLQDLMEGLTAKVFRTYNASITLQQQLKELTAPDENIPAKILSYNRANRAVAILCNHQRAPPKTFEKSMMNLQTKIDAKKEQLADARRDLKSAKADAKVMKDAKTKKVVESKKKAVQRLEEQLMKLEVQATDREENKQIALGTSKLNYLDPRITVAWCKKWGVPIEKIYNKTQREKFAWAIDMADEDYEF
Source text: as §1
To visualize the cleavage products after incubation, we used 1% agarose gel electrophoresis to separate the samples.

HepG2 cells [2] = assay: Cell cycle analysis (PI, flow cytometry); details: HepG2, 24 h treatment, DNA content percentage
Description: Subsequently, the cells were harvested, fixed in 70% ethanol, and incubated for 12 h at 4 °C. After fixation, the cells were centrifuged, and the cell pellets were washed and resuspended in 0.5 mL of cold phosphate-buffered saline (PBS). The cells were then stained with 5 μg/mL of propidium iodide (PI; Sigma, Panama City, Panama), and the DNA content was determined using a BD FACSCalibur flow cytometer (Becton Dickinson, Franklin Lakes, NJ, USA). Data analysis was performed using CellQuest software, and 10,000 events were analyzed for each sample.

HepG2 cells [3] = assay: Annexin V-FITC/PI apoptosis assay; assay type: cell-based, human; details: for apoptosis as extent of the level observed with SAHA / necrosis as extent of the level observed with SAHA: HepG2, relative to SAHA positive control; for cells in early apoptotic stage: lower right quadrant; for cells in late apoptotic stage: upper right quadrant
Description: An Annexin V-FITC assay was utilized to detect apoptosis in HepG2 cells. The cells were exposed to compounds 8b (3.4 µM) and 7c (7.3 µM) for 24 h, with untreated cells and cells treated with SAHA serving as negative and positive controls, respectively. After staining with propidium iodide (PI) and Annexin V-FITC, cell apoptosis was assessed via flow cytometry.

THLE-2 cell line = assay: MTT cytotoxicity against normal cell line THLE-2; assay type: cell-based, human; details: normal liver epithelial cells
Description: These cells were cultured in Dulbecco’s Modified Eagle’s Medium (DMEM) from Invitrogen/Life Technologies, supplemented with 10% Hyclone fetal bovine serum, […], and 1% penicillin and streptomycin. For experimental purposes, the cells were seeded in 96-well tissue culture plates at an approximate density of 5 × 10^3 cells per well and were allowed to incubate overnight. The following day, the culture medium was replaced with fresh medium containing varying concentrations of the synthesized compounds to be tested for their toxicity. After 48 h of exposure, the medium was removed, and the cells were washed twice with phosphate-buffered saline (PBS). A new medium containing MTT solution was added, and the cells were further incubated for 4 h. The cellular viability and toxicity in response to each compound were determined using ELISA microplate reader- Bioline by measuring the absorbance at a wavelength of 450 nm.

[4] = HepG2, 8b 3.4 µM, 7c 7.3 µM, 24 h (Figure 2 legend: 72 h)

SMILES	IC50 (human Topo-II)	IC50 (Topo-I)	IC50 (HCT-116 cells)	IC50 (HepG2 cells [1])	IC50 (MCF-7 cells)	other results
COc1cccc2c1C(=O)c1c(O)c3c(c(O)c1C2=O)C[C@@](O)(C(=O)CO)C[C@@H]3O[C@H]1C[C@H](N)[C@H](O)[C@H](C)O1 [Doxorubicin, reference compound]				4.5 ± 0.2 µM		
S=C(Nc1ccccc1)Nc1ccc(Nc2c3ccccc3nc3ccccc23)cc1 [Compound 6b]	24.5 ± 1.34 µM	4.17 ± 0.23 µM	13.1 ± 1.2 µM	18 ± 1.7 µM	16.5 ± 1.5 µM	
O=C(CCCCCCC(=O)Nc1ccccc1)NO [SAHA, reference compound]						%G2/M (HepG2 cells [2]): 6.59%; %Pre-G1 (HepG2 cells [2]): 34.12%; %S (HepG2 cells [2]): 46.39%; G0–G1 (HepG2 cells [2]): 47.02%; IC50 (THLE-2 cell line; 48 h): 33.6 ± 1.89 µM
Nc1ccc(Nc2c3ccccc3nc3ccccc23)cc1 [Compound 5b]			8.93 ± 0.8 µM	8.3 ± 0.7 µM	5.88 ± 0.4 µM	
S=C(Nc1ccccc1)Nc1ccc(Cc2ccc(Nc3c4ccccc4nc4ccccc34)cc2)cc1 [Compound 6a]	101 ± 5.51 µM	27.6 ± 1.5 µM	47.2 ± 3.9 µM	36.7 ± 3.5 µM	40.9 ± 3.8 µM	
N.N.[Cl][Pt][Cl] [Cisplatin, reference compound]	11.3 ± 0.62 µM	5.71 ± 0.31 µM				

Continued, in another order:

IC50 (human Topo-II)	IC50 (Topo-I)	SMILES	IC50 (HCT-116 cells)	IC50 (HepG2 cells [1])	IC50 (MCF-7 cells)	other results
234 ± 12.7 µM	82.5 ± 4.49 µM	Cc1ccc(S(=O)(=O)Nc2ccc(Cc3ccc(Nc4c5ccccc5nc5ccccc45)cc3)cc2)cc1 [Compound 7b]	88.5 ± 4.8 µM	93.6 ± 5.3 µM	73.8 ± 4.5 µM	melting point: > 250 °C
22 ± 1.2 µM	21.4 ± 1.17 µM	O=S(=O)(Nc1ccc(Nc2c3ccccc3nc3ccccc23)cc1)c1ccc(N=Nc2ccccc2)cc1 [Compound 8c]	35.7 ± 3.4 µM	22.4 ± 2 µM	25.5 ± 2.4 µM	
16.2 ± 0.88 µM	3.41 ± 0.19 µM	Cc1ccc(S(=O)(=O)Nc2ccc(Nc3c4ccccc4nc4ccccc34)cc2)cc1 [Compound 8b]	9.39 ± 0.9 µM	14.5 ± 1.4 µM	8.83 ± 0.9 µM	%G2/M (HepG2 cells [2]): 9.66%; %Pre-G1 (HepG2 cells [2]): 26.95%; %S (HepG2 cells [2]): 39.15%; G0–G1 (HepG2 cells [2]): 51.19%; apoptosis as extent of the level observed with SAHA (HepG2 cells [3]): 79%; necrosis as extent of the level observed with SAHA (HepG2 cells [3]): 46%; cells in early apoptotic stage (HepG2 cells [3]; [4]): 3.5%; cells in late apoptotic stage (HepG2 cells [3]; [4]): 19.6%; IC50 (THLE-2 cell line; Homo sapiens, THLE-2, 48 h): 104 µM; IC50 (THLE-2 cell line; 48 h): 55.5 ± 3.13 µM
32.7 ± 1.78 µM	11.9 ± 0.65 µM	CC(C)c1cc(C(C)C)c(S(=O)(=O)Nc2ccc(Nc3c4ccccc4nc4ccccc34)cc2)c(C(C)C)c1 [Compound 8d]	29.9 ± 2.8 µM	23.1 ± 2.2 µM	19.7 ± 1.7 µM	
21.6 ± 1.18 µM	7.67 ± 0.42 µM	O=S(=O)(Nc1ccc(Cc2ccc(Nc3c4ccccc4nc4ccccc34)cc2)cc1)c1ccc(N=Nc2ccccc2)cc1 [Compound 7d]	58 ± 4.3 µM	45.5 ± 3.9 µM	33.6 ± 3.3 µM	
10.9 ± 0.59 µM	15 ± 0.81 µM	O=[N+]([O-])c1ccccc1S(=O)(=O)Nc1ccc(Nc2c3ccccc3nc3ccccc23)cc1 [Compound 8a]	15.2 ± 1.6 µM	20.6 ± 1.8 µM	10.5 ± 1 µM	
7.33 ± 0.4 µM	16.6 ± 0.9 µM	CC(=O)Nc1ccc(S(=O)(=O)Nc2ccc(Cc3ccc(Nc4c5ccccc5nc5ccccc45)cc3)cc2)cc1 [Compound 7c]	40.6 ± 3.7 µM	31.1 ± 3.1 µM	29.1 ± 2.7 µM	%G2/M (HepG2 cells [2]): 28.12%; %Pre-G1 (HepG2 cells [2]): 19.61%; %S (HepG2 cells [2]): 29.27%; G0–G1 (HepG2 cells [2]): 42.61%; apoptosis as extent of the level observed with SAHA (HepG2 cells [3]): 55%; necrosis as extent of the level observed with SAHA (HepG2 cells [3]): 88%; cells in early apoptotic stage (HepG2 cells [3]; [4]): 1.6%; cells in necrotic stage (HepG2 cells [3]; HepG2, 8b 3.4 µM, 7c 7.3 µM, 24 h (Figure 2 legend: 72 h), upper left quadrant): 5.9%; cells in late apoptotic stage (HepG2 cells [3]; [4]): 12%; IC50 (THLE-2 cell line; Homo sapiens, THLE-2, 48 h): 55.5 µM; IC50 (THLE-2 cell line; 48 h): 104 ± 5.86 µM
38.7 ± 2.1 µM	42.2 ± 2.29 µM	CC(C)c1cc(C(C)C)c(S(=O)(=O)Nc2ccc(Cc3ccc(Nc4c5ccccc5nc5ccccc45)cc3)cc2)c(C(C)C)c1 [Compound 7e]	66.7 ± 4.5 µM	55.4 ± 4.2 µM	50.8 ± 4 µM	
8.07 ± 0.44 µM	18.4 ± 1 µM	O=[N+]([O-])c1ccccc1S(=O)(=O)Nc1ccc(Cc2ccc(Nc3c4ccccc4nc4ccccc34)cc2)cc1 [Compound 7a]	72.2 ± 4.7 µM	62.3 ± 4.4 µM	88.4 ± 5.1 µM	melting point: 172 °C
